Results reported in US11332470B2, “CXCR4 inhibitors and uses thereof” (X4 Pharmaceuticals, Inc., priority 2016, dated 2022).

What was measured:
[1] = in vitro; conditions: human, Caco-2, pH 7.4
Method: The goal of this assay was to evaluate the intestinal absorption potential of drug candidates using Caco-2 cell lines.
1. Prewarm Prewarm HBSS Buffer in 37° C. water bath
2. Sonicate Take compounds from −20° C., sonicate for a few minutes (no less than 1 minute)
• Donor solution buffer: For A-to-B Direction: HBSS buffer with 0.3% DMSO and 5 μM LY: add 150 μL DMSO and 50 μL LY (5 mM) into 50 ml HBSS buffer (pH 7.4). HBSS buffer with 0.1% DMSO and 5 μM LY: add 50 μL DMSO and 50 μL LY (5 mM) into 50 mL HBSS buffer (pH 7.4). For B-to-A Direction: HBSS buffer with 0.3% DMSO: add 150 μL DMSO into 50 ml HBSS buffer (pH 7.4). HBSS buffer with 0.1% DMSO: add 50 μL DMSO into 50 ml HBSS buffer (pH 7.4). Receiver Solution Buffer: For A-to-B Direction: Prepare HBSS buffer with 0.4% DMSO: add 200 μL DMSO into 50 ml HBSS buffer (pH 7.4). For B-to-A Direction: Prepare HBSS buffer with 0.4% DMSO and 5 μM LY: add 200 μL DMSO and 50 μL LY (5 mM) into 50 ml HBSS buffer (pH 7.4).
4. Measure TEER Take cell culture plate out of incubator, wash the cell monolayers with HBSS buffer, and then measure TEER values at Rm temperature. 5. Centrifuge Centrifuge the compound solution (from step 3) at 4000 rpm for 5 min before loading to donor chambers. 6. Dosing Add solution based on the volumes listed in the following table (make sure to take extra 100 μL of donor sample for TO as Backup).
7. Apical LYT0 samples To determine LY concentration in the apical chamber, take 100 μL sample from apical chambers into an opaque plate for LYT0. 8. Prewarm Prewarm apical and basolateral plates at 37° C. for about 5 min, then begin transport by placing the apical plate onto basolateral plate. 9. Incubation Keep the plates in incubator at 37° C. for 90 min. 10.
Prepare Working Solution in MeOH/H2O (1:1)
• Prepare 1×solution: 3 μL (20×)+57 μL of 0.4% DMSO HBSS+60 μL ACN with IS (Osalmid or Imipramine)−120 μL (1×) 11. Transport termination Separate the apical plate from the basolateral plate after 90-min incubation. 12. Measure LY Take 100 μL samples from basolateral plate to an opaque plate as LYT90. 13. Measure LY concentrations for LYT0 and LYT90 by Fluorometer (at excitation of 485 nm/emission of 535 nm). 14.
Study details: Test concentration 10 μM
Test systems: Caco-2/HBSS solution
Incubation conditions: 0, 90 min at 37° C.
Sample size: Duplicates (n=2)
Bioanalytical method: LC-MS/MS
For Millicell-24 Cell Culture Plates: surface area of the membrane=0.7 cm^2, VA=0.8 mL (A-to-B) or 0.4 mL (B-to-A)
The compound numbers correspond to the compound numbers in Table 1.

[2] = target: T1, CXCR4 (U87.CXCR4 cells) (Homo sapiens, UniProt P61073); assay: Intracellular CXCL-12-induced calcium mobilization assay (FLIPR); type: cell-based; conditions: CXCL-12 25-50 ng/mL, read-out: IC50 CXCL-12 Ca2+ flux U87.CXCR4+
T1 construct: expressed in transfected cells; host or cells: U87 (U87.CXCR4)
T1 sequence (P61073 whole entry): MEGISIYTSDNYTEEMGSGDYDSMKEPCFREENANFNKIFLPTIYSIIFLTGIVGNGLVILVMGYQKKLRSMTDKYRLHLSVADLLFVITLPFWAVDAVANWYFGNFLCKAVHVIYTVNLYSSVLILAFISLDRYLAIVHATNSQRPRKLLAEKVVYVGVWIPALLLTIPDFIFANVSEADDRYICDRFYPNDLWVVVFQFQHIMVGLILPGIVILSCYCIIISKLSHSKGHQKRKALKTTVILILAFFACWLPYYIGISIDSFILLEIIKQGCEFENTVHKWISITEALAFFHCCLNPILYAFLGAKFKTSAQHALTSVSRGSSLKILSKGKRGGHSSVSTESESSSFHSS
Method: Intracellular CXCL-12-Induced Calcium Mobilization Assay
Intracellular calcium mobilization induced by chemokines or chemokine-derived peptides were evaluated using a calcium responsive fluorescent probe and a FLIPR system. The CXCR-4 transfected U87 cell line (U87.CXCR4) cells were seeded in gelatine-coated black-wall 96-well plates at 20,000 cells per well and incubated for 12 hours. Cells were then loaded with the fluorescent calcium probe Fluo-2 acetoxymethyl at 4 μM final concentration in assay buffer (Hanks' balanced salt solution with 20 mM HEPES buffer and 0.2% bovine serum albumin, pH 7.4) for 45 min at 37° C. The intracellular calcium mobilization induced by the CXCL-12 (25-50 ng/mL) was then measured at 37° C. by monitoring the fluorescence as a function of time in all the wells simultaneously using a fluorometric imaging plate reader (FLIPR Tetra, Molecular Devices).

[3] = target: T2, CXCR4 (Jurkat cells expressing CXCR4) (Homo sapiens, UniProt P61073); assay: Chemokine (CXCL12-AF647) binding inhibition assay; conditions: CXCL12-AF647 25 ng/mL, read-out: IC50 CXCL-12 binding Jurkat
T2 construct: Jurkat cells expressing CXCR4; endogenous in cells; host or cells: Jurkat
T2 sequence (P61073 whole entry): as above
Method: Chemokine (CXCL12-AF647) Binding Inhibition Assay
Jurkat cells expressing CXCR4 were washed once with assay buffer (Hanks' balanced salt solution with 20 mM HEPES buffer and 0.2% bovine serum albumin, pH 7.4) and then incubated for 15 min at room temperature with the test compounds diluted in assay buffer at dose-dependent concentrations. Subsequently, CXCL12-AF647 (25 ng/mL) was added to the compound-incubated cells. The cells were incubated for 30 min at room temperature. Thereafter, the cells were washed twice in assay buffer, fixed in 1% paraformaldehyde in PBS, and analyzed on the FL4 channel of a FACSCalibur flow cytometer equipped with a 635-nm red diode laser (Becton Dickinson, San Jose, Calif., USA).
The percentages of inhibition of CXCL12-AF647 binding were calculated according to the formula: [1−((MFI−MFINC)/(MFIPC−MFINC))]×100 where MFI is the mean fluorescence intensity of the cells incubated with CXCL12-AF647 in the presence of the inhibitor, MFINC is the mean fluorescence intensity measured in the negative control (i.e., autofluorescence of unlabeled cells), and MFIPC is the mean fluorescence intensity of the positive control (i.e., cells exposed to CXCL12-AF647 alone).

Compound	Papp A→B at 90 min, 10 μM [1]	Papp B→A at 90 min, 10 μM [1]	efflux ratio at 90 min, 10 μM [1]	IC50 [2]	IC50 [3]
O=C1CN(c2c(CN3CCCC3c3ccccn3)nc3ccccn23)CCN1 (stereo not drawn) [Compound I-86]	0.1 to 10 ×10⁻⁶ cm/s	10 to 30 ×10⁻⁶ cm/s	10 to 30	≥ 1000 nM	≥ 1000 nM
CN1CCN(c2c(CN3CCCC3c3ccc(F)cn3)nc3ccccn23)CC1 (stereo not drawn) [Compound I-76]	10 to 30 ×10⁻⁶ cm/s	0.1 to 10 ×10⁻⁶ cm/s	0.1 to 10	0.01 to 100 nM	0.01 to 100 nM
Cc1cccnc1C1CCCN1Cc1nccn1C1CCN(C)CC1 (stereo not drawn) [Compound I-36]	0.1 to 10 ×10⁻⁶ cm/s	> 30 ×10⁻⁶ cm/s	0.1 to 10	≥ 1000 nM	100 to 1000 nM
CN1CCN(c2cccc3nc(C4CCCN4Cc4ncccn4)[nH]c23)CC1 (stereo not drawn) [Compound I-105]	0.1 to 10 ×10⁻⁶ cm/s	> 30 ×10⁻⁶ cm/s	0.1 to 10	≥ 1000 nM	≥ 1000 nM
Cc1cccnc1C1CCCN1Cc1nccn1CC1CCOCC1 (stereo not drawn) [Compound I-110]	10 to 30 ×10⁻⁶ cm/s	> 30 ×10⁻⁶ cm/s	0.1 to 10	≥ 1000 nM	100 to 1000 nM
CN1CC=C(c2c(CN3CCCC3c3ccccn3)nc3ccccn23)CC1 (stereo not drawn) [Compound I-79]	0.1 to 10 ×10⁻⁶ cm/s	> 30 ×10⁻⁶ cm/s	0.1 to 10	0.01 to 100 nM	0.01 to 100 nM
CN1CCN(c2cccc3nc(CN4CCCC4c4ncccc4Cl)cn23)CC1 (stereo not drawn) [Compound I-27]	0.1 to 10 ×10⁻⁶ cm/s	10 to 30 ×10⁻⁶ cm/s	0.1 to 10	100 to 1000 nM	0.01 to 100 nM
c1ccc(C2CCCN2Cc2nc3ccccn3c2-c2ccncc2)nc1 (stereo not drawn) [Compound I-80]	10 to 30 ×10⁻⁶ cm/s	> 30 ×10⁻⁶ cm/s	0.1 to 10	100 to 1000 nM	100 to 1000 nM
Cc1cccnc1C1CCCN1Cc1nccn1CC1CCN(C)CC1 (stereo not drawn) [Compound I-52]	0.1 to 10 ×10⁻⁶ cm/s	10 to 30 ×10⁻⁶ cm/s	0.1 to 10	0.01 to 100 nM	0.01 to 100 nM
Cc1cccnc1C1CCCN1Cc1ncccc1N1CCN(C)CC1 (stereo not drawn) [Compound I-53]	0.1 to 10 ×10⁻⁶ cm/s	10 to 30 ×10⁻⁶ cm/s	0.1 to 10	≥ 1000 nM	0.01 to 100 nM
CN1CCC(n2c(CN3CCCC3c3ccccn3)nc3ccccc32)CC1 (stereo not drawn) [Compound I-54]	10 to 30 ×10⁻⁶ cm/s	10 to 30 ×10⁻⁶ cm/s	0.1 to 10	100 to 1000 nM	0.01 to 100 nM
CN1CCN(c2cccnc2CN2CCCC2c2ccccn2)CC1 (stereo not drawn) [Compound I-56]	10 to 30 ×10⁻⁶ cm/s	10 to 30 ×10⁻⁶ cm/s	0.1 to 10	≥ 1000 nM	100 to 1000 nM
Cc1cccnc1CN1CCCC1c1cn2c(N3CCN(C)CC3)cccc2n1 (stereo not drawn) [Compound I-103]	0.1 to 10 ×10⁻⁶ cm/s	> 30 ×10⁻⁶ cm/s	0.1 to 10	0.01 to 100 nM	0.01 to 100 nM
Cc1cccnc1CN1CCCC1c1nccn1CC1CCN(C)CC1 (stereo not drawn) [Compound I-92]	0.1 to 10 ×10⁻⁶ cm/s	10 to 30 ×10⁻⁶ cm/s	0.1 to 10	100 to 1000 nM	0.01 to 100 nM
c1ccc(C2CCCN2Cc2ncccc2-n2ccnc2)nc1 (stereo not drawn) [Compound I-75]	10 to 30 ×10⁻⁶ cm/s	> 30 ×10⁻⁶ cm/s	0.1 to 10	≥ 1000 nM	100 to 1000 nM
Cc1cccnc1C1CCCN1Cc1nccn1Cc1cccnc1 (stereo not drawn) [Compound I-88]	10 to 30 ×10⁻⁶ cm/s	10 to 30 ×10⁻⁶ cm/s	0.1 to 10	≥ 1000 nM	100 to 1000 nM
Cc1cccnc1C1CCCN1Cc1nccn1CCCCN1CCOCC1 (stereo not drawn) [Compound I-111]	0.1 to 10 ×10⁻⁶ cm/s	10 to 30 ×10⁻⁶ cm/s	0.1 to 10	≥ 1000 nM	0.01 to 100 nM
Cc1cccnc1C1CCCN1Cc1nc2cccc(N3CCN(C)CC3)c2s1 (stereo not drawn) [Compound I-37]	10 to 30 ×10⁻⁶ cm/s	10 to 30 ×10⁻⁶ cm/s	0.1 to 10	≥ 1000 nM	100 to 1000 nM
CN1CCN(c2cccc3nc(CN4CCCC4c4nccc5ccccc45)cn23)CC1 (stereo not drawn) [Compound I-14]	0.1 to 10 ×10⁻⁶ cm/s	10 to 30 ×10⁻⁶ cm/s	0.1 to 10	100 to 1000 nM	0.01 to 100 nM
Cc1cccnc1C1CCCN1Cc1nccn1CC1CCN(c2ccccn2)CC1 (stereo not drawn) [Compound I-109]	> 30 ×10⁻⁶ cm/s	> 30 ×10⁻⁶ cm/s	0.1 to 10	≥ 1000 nM	100 to 1000 nM
CN1CCN(c2cccc3nc(CN4CCCC4c4nccs4)[nH]c23)CC1 (stereo not drawn) [Compound I-49]	10 to 30 ×10⁻⁶ cm/s	10 to 30 ×10⁻⁶ cm/s	0.1 to 10	≥ 1000 nM	≥ 1000 nM
